From US20030109523A1, “Bicyclic antagonists selective for the alphavbeta3 integrin” (Wyeth, priority 1999, published 2003)
pIC50: −log10 of the molar value. Structures can show the parent of a compound that is named as a salt. Blank lines part the entries; values can stand above or below the molecule they belong to.

Columns and labels:
αIIbβ3 integrin = target: T1, αIIbβ3 integrin (Homo sapiens, UniProt P05106+P08514); assay: ADP-Induced Platelet Aggregation; type: cell-based; details: Table VII; for pIC50: ADP 20 uM, human platelets, read-out: Platelet Aggregation αIIbβ3 IC50
T1 construct: Human Platelets: Platelet-enriched plasma was obtained commercially from a donor pool; from tissue; host or cells: human platelet-rich plasma from a commercial donor pool
T1 sequence (P08514 32-887 limits assumed): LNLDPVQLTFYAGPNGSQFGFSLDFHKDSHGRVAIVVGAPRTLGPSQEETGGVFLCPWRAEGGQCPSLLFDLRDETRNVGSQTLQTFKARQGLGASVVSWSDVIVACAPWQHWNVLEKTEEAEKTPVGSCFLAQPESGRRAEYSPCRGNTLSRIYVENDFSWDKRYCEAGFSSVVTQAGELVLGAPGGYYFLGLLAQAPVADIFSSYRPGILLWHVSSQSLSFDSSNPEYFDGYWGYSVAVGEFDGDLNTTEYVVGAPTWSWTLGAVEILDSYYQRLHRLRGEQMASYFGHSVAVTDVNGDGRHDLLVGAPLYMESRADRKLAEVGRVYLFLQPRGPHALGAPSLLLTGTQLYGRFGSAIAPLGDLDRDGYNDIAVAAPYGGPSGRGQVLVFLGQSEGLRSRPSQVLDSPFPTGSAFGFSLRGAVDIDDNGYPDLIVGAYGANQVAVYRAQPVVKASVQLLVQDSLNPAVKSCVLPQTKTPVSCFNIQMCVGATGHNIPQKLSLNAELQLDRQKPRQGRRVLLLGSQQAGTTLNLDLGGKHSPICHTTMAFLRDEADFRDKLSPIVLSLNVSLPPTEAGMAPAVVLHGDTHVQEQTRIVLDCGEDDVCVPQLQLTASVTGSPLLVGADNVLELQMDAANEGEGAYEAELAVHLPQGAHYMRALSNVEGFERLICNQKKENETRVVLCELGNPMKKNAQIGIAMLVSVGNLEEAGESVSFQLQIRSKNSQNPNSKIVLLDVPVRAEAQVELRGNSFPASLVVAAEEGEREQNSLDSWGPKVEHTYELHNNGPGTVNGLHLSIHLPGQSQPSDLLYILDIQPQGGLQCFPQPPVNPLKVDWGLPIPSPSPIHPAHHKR
T1 sequence (P08514 891-1039 partner limits assumed): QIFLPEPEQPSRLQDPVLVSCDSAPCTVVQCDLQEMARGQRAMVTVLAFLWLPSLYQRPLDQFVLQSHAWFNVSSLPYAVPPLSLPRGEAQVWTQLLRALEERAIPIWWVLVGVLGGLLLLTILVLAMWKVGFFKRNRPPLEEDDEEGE
T1 sequence (P05106 27-788): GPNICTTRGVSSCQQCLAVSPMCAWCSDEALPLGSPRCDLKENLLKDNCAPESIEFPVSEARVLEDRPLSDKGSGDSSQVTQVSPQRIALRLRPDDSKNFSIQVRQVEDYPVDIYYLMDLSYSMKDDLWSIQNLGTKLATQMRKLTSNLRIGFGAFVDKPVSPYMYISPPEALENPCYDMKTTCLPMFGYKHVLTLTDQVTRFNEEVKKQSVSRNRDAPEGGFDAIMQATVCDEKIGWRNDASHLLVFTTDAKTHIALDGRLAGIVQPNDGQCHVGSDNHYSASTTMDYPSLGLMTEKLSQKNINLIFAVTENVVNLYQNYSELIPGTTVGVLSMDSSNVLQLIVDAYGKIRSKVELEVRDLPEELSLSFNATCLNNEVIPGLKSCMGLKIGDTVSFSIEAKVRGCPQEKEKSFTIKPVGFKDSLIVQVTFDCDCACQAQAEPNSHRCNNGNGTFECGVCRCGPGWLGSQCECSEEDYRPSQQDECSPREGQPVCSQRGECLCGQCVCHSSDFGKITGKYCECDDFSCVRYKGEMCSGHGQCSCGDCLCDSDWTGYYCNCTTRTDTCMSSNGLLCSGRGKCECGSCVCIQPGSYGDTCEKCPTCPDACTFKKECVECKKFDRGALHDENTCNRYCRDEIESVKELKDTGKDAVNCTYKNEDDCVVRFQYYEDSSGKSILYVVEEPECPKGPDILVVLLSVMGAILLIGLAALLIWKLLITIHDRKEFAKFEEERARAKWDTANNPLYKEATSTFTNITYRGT
Experimental: Measurement of the Effect of Compounds on ADP-Induced Platelet Aggregation
Measuring the effect of compounds on ADP-induced platelet aggregation mediated by a fibrinogen-αIIbβ3 integrin interaction.
Human Platelets: Platelet-enriched plasma was obtained commercially from a donor pool. The plasma was tested prior to shipment and found to be negative for HIV, HCV and Hepatitis B. Platelet-rich plasma (PRP) was obtained by diluting plasma to an approximate final concentration of 3×10(6) platelets per mL in platelet poor plasma (PPP). PPP was the supernatant of a lowspeed centrifugation of plasma.
Adenosine diphosphate (ADP): ADP was obtained commercially and diluted to 1 mM (stock solution) in distilled, deionized water (ddH2O).
Incubation: PRP and PPP were prewarmed in a water bath at 37° C. […] PRP plus sample compound in a final volume of 500 uL was added to a pre-warmed cuvette in a ChronoLog aggregometer. A control containing PRP and 5 uL of vehicle was treated similarly to the test cuvette; final vehicle concentration was 1%. The two cuvettes were incubated with stirring (1000 rpm) at 37° C. for 5 minutes. Five hundred microliters of PPP was used as a reference (100% aggregation).
Aggregation: To begin the test, ADP was added yielding a final concentration of 20 uM to both samples (plus and minus sample compound). Light transmittance was monitored continuously and compared to the reference cuvette. After five minutes, the test was terminated and the slope and maximal amplitude of the resulting aggregation plot was calculated by the aggregometer.
The percent of maximal aggregation is the ratio of the maximal aggregations of the sample cuvette to the control multiplied by 100 (% Max) and reported as the mean+−standard deviation.

αVβ3 integrin = target: T2, αVβ3 integrin (Homo sapiens, UniProt P05106+P06756); assay: Osteopontin-αVβ3 Cell Attachment Test Procedure; type: cell-based; details: for pIC50: attachment of cells to osteopontin, read-out: (αVβ3) IC50 CELL ATTACHMENT
T2 construct: αVβ3-expressing cell lines are maintained by standard tissue culture techniques; endogenous in cells; host or cells: αVβ3-expressing cell lines
T2 sequence (P06756 31-889 limits assumed): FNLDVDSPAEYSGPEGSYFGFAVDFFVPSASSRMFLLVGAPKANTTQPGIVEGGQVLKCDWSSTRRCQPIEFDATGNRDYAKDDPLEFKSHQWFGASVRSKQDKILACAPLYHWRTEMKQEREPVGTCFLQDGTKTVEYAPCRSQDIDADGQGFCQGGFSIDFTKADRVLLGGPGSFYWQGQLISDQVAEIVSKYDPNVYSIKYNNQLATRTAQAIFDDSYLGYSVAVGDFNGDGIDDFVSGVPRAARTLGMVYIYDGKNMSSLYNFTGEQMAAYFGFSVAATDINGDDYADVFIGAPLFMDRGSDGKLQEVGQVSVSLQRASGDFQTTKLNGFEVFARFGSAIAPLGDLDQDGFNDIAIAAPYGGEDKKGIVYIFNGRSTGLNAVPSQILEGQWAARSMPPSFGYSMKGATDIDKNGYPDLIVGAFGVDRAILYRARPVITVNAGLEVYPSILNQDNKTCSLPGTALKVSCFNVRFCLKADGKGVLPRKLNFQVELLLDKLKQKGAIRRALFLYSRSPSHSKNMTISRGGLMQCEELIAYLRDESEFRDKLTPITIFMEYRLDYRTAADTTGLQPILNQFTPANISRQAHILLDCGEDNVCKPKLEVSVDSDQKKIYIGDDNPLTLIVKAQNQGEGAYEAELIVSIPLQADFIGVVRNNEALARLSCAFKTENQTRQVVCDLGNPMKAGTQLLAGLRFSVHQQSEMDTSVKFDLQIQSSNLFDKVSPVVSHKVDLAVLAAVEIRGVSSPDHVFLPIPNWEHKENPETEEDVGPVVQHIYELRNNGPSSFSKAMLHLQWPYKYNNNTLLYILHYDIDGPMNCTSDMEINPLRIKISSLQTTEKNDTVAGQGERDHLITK
T2 sequence (P06756 891-1048 partner limits assumed): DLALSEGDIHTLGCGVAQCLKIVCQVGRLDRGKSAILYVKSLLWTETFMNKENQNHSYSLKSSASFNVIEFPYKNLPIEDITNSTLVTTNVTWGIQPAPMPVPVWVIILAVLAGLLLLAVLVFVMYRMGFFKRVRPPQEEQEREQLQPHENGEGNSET
T2 sequence (P05106 27-788): as the sequence (P05106 27-788) above
Experimental: Osteopontin-αVβ3 Cell Attachment Test Procedure
Measuring the effect of compounds on the RGD-dependent attachment of cells to osteopontin mediated by the αVβ3 integrin.
Following incubation the wells were aspirated and washed once with D-PBS; plates can either be used immediately or stored for up to 1 week at 4° C. Prior to assay, the wells were blocked with 1% bovine serum albumin (BSA) in cell suspension media for 1 hour at 37° C. Following the blocking period, wells were aspirated and washed once with D-PBS.
αVβ3-expressing cell lines are maintained by standard tissue culture techniques. […] The cells were pelleted by low-speed centrifugation and washed three times with 0.5 mg/mL trypsin inhibitor in D-PBS (Sigma). The final cell pellet was resuspended in cell suspension media at a concentration of 10^6 cells/mL.
Incubation: 100 μL of diluted test compound was added to osteopontin-coated wells (in triplicate) followed by 100 μL of cell suspension; background cell attachment was determined in uncoated wells. The plate was incubated at 25° C. in a humidified air atmosphere for 1.5 hours. Following the incubation period, the wells were gently aspirated and washed once with D-PBS.
Cell Number Detection: The number of cells attached was determined by an MTT dye conversion assay (Promega) according to the manufacturer's instructions. Briefly, MTT dye was diluted in cell suspension media (15:85) and 100 μL was added to each well. […] The assay plates were covered and incubated at 37° C. in a humidified air atmosphere overnight.
The individual well optical density was expressed as a percentage of the maximal attachment (% Max) wells minus background attachment, and reported as the mean ±standard deviation.

[1] = target: T3, Vitronectin Receptor (αVβ3) (Homo sapiens, UniProt P05106+P06756); assay: Vitronectin Receptor (αVβ3) Binding Test Procedure; details: for pIC50: read-out: (αVβ3) IC50 RECEPTOR BINDING
T3 construct: expressed in transfected cells; host or cells: 512P5 cells (plasma membrane preparation)
T3 sequence (P06756 31-889 limits assumed): as the sequence (P06756 31-889 limits assumed) above
T3 sequence (P06756 891-1048 partner limits assumed): as the sequence (P06756 891-1048 partner limits assumed) above
T3 sequence (P05106 27-788): as the sequence (P05106 27-788) above

osteoclasts = assay: Osteoclast Bone Pitting; type: cell-based, rat
Experimental: Osteoclast Bone Pitting The test procedure was conducted as described by R. J. Murrills and D. W. […] At this pH the adherent osteoclasts excavate an adequate number of resorption pits for assay purposes. Slices were fixed in 2.5% glutaraldehyde and osteoclasts counted following tartrate-resistant acid phosphatase staining. […] All cells were stripped from the slice by sonication on 0.25M NH4OH and the resorption pits formed by the osteoclasts during the experiment stained with toluidine blue. Resorption pits were quantified by manually counting. The experiments were conducted according to a block design with osteoclasts from each animal exposed to each treatment. Three replicate slices were used per treatment per animal, such that a total of 96 slices were examined for an experiment involving four animals and eight treatments (including control). Several parameters were recorded on a “per slice” basis: number of pits, number of osteoclasts, number of pits per osteoclast, number of fibroblast-like bone cells. SAS or JMP statistical software were used for statistical analysis. […] IC50s were calculated using dose-response curves.

[2] = @200 μM, percent of maximal aggregation
[3] = % of maximal attachment, read-out: (αVβ3) CELL ATTACHMENT, % @ concentration
[4] = @ 100 μM, % of maximal attachment, read-out: (αVβ3) CELL ATTACHMENT, % @ concentration
[5] = @ 30 μM, % Max = percentage of the specific binding, read-out: (αVβ3) RECEPTOR BINDING, % @ concentration

SMILES: CCn1c(=O)c(CC(=O)O)cc2ccc(OCCCN)cc21.O=C(O)C(F)(F)F
melting point: 182 to 184 °C

melting point: 126 to 128 °C
SMILES: NCCCOc1ccc2cc(CC(=O)O)c(=O)n(Cc3ccccc3)c2c1 (as salt: salt) [Example 136, [1-Benzyl-7-(3-amino-propoxy)-2-oxo-1,2-dihydro-quinolin-3-yl]-acetic Acid]

melting point: 194 to 196 °C
SMILES: NCCCOc1ccc2c(c1)NC(=O)C(CC(=O)O)C2 (centres unmarked) (as salt: salt) [Example 205, [7-(3-Amino-propoxy)-2-oxo-1,2,3,4-tetrahydro-quinolin-3-yl]-acetic Acid]

melting point: 119 to 122 °C
SMILES: N=C(N)NCCOc1ccc2c(c1)CC(CCC(=O)O)C(=O)N2 (centres unmarked) (as salt: salt) [Example 222, 3-[6-(2-Guanidino-ethoxy)-2-oxo-1,2,3,4-tetrahydro-quinolin-3-yl]-propionic Acid]

SMILES: N=C(N)NCCCCOc1ccc2c(c1)CC(CC(=O)O)C(=O)N2 (centres unmarked) (as salt: salt) [Example 229, [6-(4-Guanidino-butoxy)-2-oxo-1,2,3,4-tetrahydro-quinolin-3-yl]-acetic Acid]
melting point: 170 to 173 °C

SMILES: N=C(N)NCCCCCOc1cccc2c1NC(=O)C(CC(=O)O)C2 (centres unmarked) (as salt: salt) [Example 250, [8-(5-Guanidino-pentoxy)-2-oxo-1,2,3,4-tetrahydro-quinolin-3-yl]-acetic Acid]
melting point: 126 to 131 °C

melting point: 219 to 220 °C
SMILES: N=C(N)NCCOc1ccc2cc(CC(=O)O)c(=O)[nH]c2c1 (as salt: trifluoroacetate) [Example 185, [7-(2-Guanidino-ethoxy)-2-oxo-1,2-dihydro-quinolin-3-yl]-acetic Acid]

remaining activity at 200 µM (αIIbβ3 integrin; [2]): 83.7%
melting point: 132 to 134 °C
SMILES: N=C(N)NCCCOc1ccc2cc(CC(=O)O)c(=O)n(Cc3ccccc3)c2c1 [Example 155, [1-Benzyl-7-(3-guanidino-propoxy)-2-oxo-1,2-dihydro-quinolin-3-yl]-acetic Acid]

SMILES: N=C(N)NCCCOc1ccc2cc(CC(=O)O)c(=O)[nH]c2c1.O=C(O)C(F)(F)F [Example 186, [7-(3-Guanidino-propoxy)-2-oxo-1,2-dihydro-quinolin-3-yl]-acetic Acid Trifluoroacetate]
remaining activity at 20 µM (αVβ3 integrin; [3]): 113%
remaining activity at 100 µM (αVβ3 integrin; [4]): 68.9%
melting point: 195 to 198 °C

remaining activity at 100 µM ([1]; @ 100 μM, % Max = percentage of the specific binding, read-out: (αVβ3) RECEPTOR BINDING, % @ concentration): 31.4%
pIC50 (αVβ3 integrin): 3.84
remaining activity at 200 µM (αIIbβ3 integrin; [2]): 94%
SMILES: N=C(N)NCCNC(=O)c1ccc2c(c1)NC(=O)C(CC(=O)O)C2 (centres unmarked) [Example 200, [7-(2-Guanidino-ethylcarbamoyl)-2-oxo-1,2,3,4-tetrahydro-quinolin-3-yl]-acetic Acid Hydrochloride]
inhibition at 254 µM (osteoclasts; Rattus norvegicus, Osteoclast, @ 254 μM): 20%

pIC50 [1]: 5.24
pIC50 (αVβ3 integrin): 4.60
remaining activity at 200 µM (αIIbβ3 integrin; [2]): 85%
SMILES: N=C(N)NCCCNC(=O)c1ccc2c(c1)NC(=O)C(CC(=O)O)C2 (centres unmarked) [Example 201, [7-(3-Guanidino-propylcarbamoyl)-2-oxo-1,2,3,4-tetrahydro-quinolin-3-yl]-acetic Acid Hydrochloride]
inhibition at 256 µM (osteoclasts; Rattus norvegicus, Osteoclast, @ 256 μM): 45%

remaining activity at 30 µM [1, 5]: 50%
pIC50 (αVβ3 integrin): 4.07
pIC50 (αIIbβ3 integrin): 4.06
SMILES: N=C(N)NCCCCNC(=O)c1ccc2c(c1)NC(=O)C(CC(=O)O)C2 (centres unmarked) [Example 202, [7-(4-Guanidino-butylcarbamoyl)-2-oxo-1,2,3,4-tetrahydro-quinolin-3-yl]-acetic Acid Hydrochloride]
inhibition at 240 µM (osteoclasts; Rattus norvegicus, Osteoclast, @ 240 μM): 37%

melting point: 205 to 208 °C
SMILES: NCCOc1ccc2c(c1)NC(=O)C(CC(=O)O)C2 (centres unmarked) [Example 204, [7-(2-Amino-ethoxy)-2-oxo-1,2,3,4-tetrahydro-quinolin-3-yl]-acetic Acid]

pIC50 [1]: 6.38
pIC50 (αVβ3 integrin): 6.32
remaining activity at 200 µM (αIIbβ3 integrin; [2]): 58%
SMILES: O=C(O)CC1CCc2cc(OCCCNC3=NCCCN3)ccc2C1 (centres unmarked) [Example 214, {6-[3-(1,4,5,6-Tetrahydro-pyrimidin-2-ylamino)-propoxy]-1,2,3,4-tetrahydro-naphthalen-2-yl}-acetic Acid]
inhibition at 19 µM (osteoclasts; Rattus norvegicus, Osteoclast, @ 19 μM): 19%

pIC50 [1]: 5.70
pIC50 (αVβ3 integrin): 4.43
pIC50 (αIIbβ3 integrin): 3.82
SMILES: COC(=O)CC1CCc2cc(OCCCNC3=NCCCN3)ccc2C1 (centres unmarked) [Example 215]
inhibition at 200 µM (osteoclasts; Rattus norvegicus, Osteoclast, @ 200 μM): 90%

(αVβ3) RECEPTOR BINDING, % @ concentration ([1]; @ 30 μM, % Max = percentage of the specific binding): 57%@ 30
(αVβ3) CELL ATTACHMENT, % @ concentration (αVβ3 integrin; @ 100 μM, % of maximal attachment): 88%@ 100
Percent of Maximal (αIIbβ3 integrin; [2]): 83.7@200%
SMILES: N=C(N)NCCCOc1ccc2c(c1)CC(CC(=O)O)C(=O)N2 (centres unmarked) [Example 228, [6-(3-Guanidino-propoxy)-2-oxo-1,2,3 4-tetrahydro-quinolin-3-yl]-acetic Acid]
BONE PITTING INHIBITION (osteoclasts; @ 230 μM): 7%@ 230

SMILES: N=C(N)NCCCCOc1ccc2c(c1)CC(CC(=O)O)C(=O)N2 (centres unmarked) [Example 229, [6-(4-Guanidino-butoxy)-2-oxo-1,2,3,4-tetrahydro-quinolin-3-yl]-acetic Acid]
remaining activity at 30 µM [1, 5]: 100%
remaining activity at 100 µM (αVβ3 integrin; [4]): 82%
inhibition at 214 µM (osteoclasts; Rattus norvegicus, Osteoclast, @ 214 μM): 2%
pIC50 (αIIbβ3 integrin): 3.84

SMILES: N=C(N)NCCCCOc1ccc2[nH]c(=O)c(CC(=O)O)cc2c1 [Example 238, [6-(4-Guanidino-butoxy)-2-oxo-1,2-dihydro-quinolin-3-yl]-acetic Acid Trifluoroacetic Acid Salt]
remaining activity at 30 µM [1, 5]: 100%
remaining activity at 20 µM (αVβ3 integrin; [3]): 102%
remaining activity at 100 µM (αVβ3 integrin; [4]): 97.9%
inhibition at 215 µM (osteoclasts; Rattus norvegicus, Osteoclast): -20%
remaining activity at 200 µM (αIIbβ3 integrin; [2]): 94%

SMILES: N=C(N)NCCOc1ccc2cc(CCC(=O)O)c(=O)[nH]c2c1.O=[N+]([O-])O [Example 247, 3-[7-(2-Guanidino-ethoxy)-2-oxo-1,2-dihydro-quinolin-3-yl]-propionic Acid Nitric Acid Salt]
remaining activity at 200 µM (αIIbβ3 integrin; [2]): 100%
melting point: 211 °C (dec.)

SMILES: N=C(N)NCCCCCOc1cccc2c1NC(=O)C(CC(=O)O)C2 (centres unmarked) [Example 250, [8-(5-Guanidino-pentoxy)-2-oxo-1,2,3,4-tetrahydro-quinolin-3-yl]-acetic Acid]
remaining activity at 30 µM [1, 5]: 102%
remaining activity at 10 µM (αVβ3 integrin; @ 10 μM, % of maximal attachment, read-out: (αVβ3) CELL ATTACHMENT, % @ concentration): 90%
remaining activity at 100 µM (αVβ3 integrin; [4]): 89%
inhibition at 215 µM (osteoclasts; Rattus norvegicus, Osteoclast): -5%
remaining activity at 200 µM (αIIbβ3 integrin; [2]): 69%
